Assay results published in article PMC4609000 (Chembiochem : a European journal of chemical biology, 2015).
Entries after “also recorded” stand apart in the source; their conditions may differ. Where two headings read alike, the source gives them in different places. One block for each compound: values may come before it.

Assays:
[1] = biological target: T1, DXP synthase (Escherichia coli, UniProt P77488); assay: DXP synthase inhibitory activity in the presence of BME or ascorbic acid; assay type: biochemical, E. coli; conditions: inhibitor 50 µM
T1 sequence (P77488 whole entry): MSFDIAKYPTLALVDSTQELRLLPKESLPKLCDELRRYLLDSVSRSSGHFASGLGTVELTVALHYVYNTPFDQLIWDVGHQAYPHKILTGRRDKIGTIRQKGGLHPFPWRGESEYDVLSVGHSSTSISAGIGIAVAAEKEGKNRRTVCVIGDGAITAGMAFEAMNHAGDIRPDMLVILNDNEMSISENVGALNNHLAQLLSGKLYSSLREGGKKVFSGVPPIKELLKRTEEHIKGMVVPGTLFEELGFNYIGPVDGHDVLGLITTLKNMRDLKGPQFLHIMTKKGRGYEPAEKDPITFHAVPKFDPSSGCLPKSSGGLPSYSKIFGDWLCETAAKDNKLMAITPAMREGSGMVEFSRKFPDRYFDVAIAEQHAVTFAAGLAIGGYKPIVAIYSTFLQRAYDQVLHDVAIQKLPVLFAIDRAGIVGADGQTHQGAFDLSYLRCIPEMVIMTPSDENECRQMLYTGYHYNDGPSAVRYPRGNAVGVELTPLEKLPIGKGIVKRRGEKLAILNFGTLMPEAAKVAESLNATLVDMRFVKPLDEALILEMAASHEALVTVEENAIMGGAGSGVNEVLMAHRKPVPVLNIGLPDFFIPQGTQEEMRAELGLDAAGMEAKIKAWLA

[2] = biological target: T1, DXP synthase; assay: Rapid dilution experiment; assay type: biochemical, E. coli; conditions: pre-incubation 15 or 30 min
[3] = 13C NMR monitoring of oxime 8 at pH 8; assay type: physicochemical; conditions: pH 8, 24 hours
[4] = biological target: T1, DXP synthase; assay: DXP synthase inhibition, continuous spectrophotometric IspC-coupled assay; assay type: biochemical, E. coli; conditions: for mode of inhibition with respect to pyruvate / mode of inhibition with respect to D-GAP: model discrimination analysis (AIC)
[5] = pH 8
[6] = biological target: DXP synthase; conditions: cited from earlier work
[7] = Stability of inhibitors under the assay conditions; conditions: HEPES pH 8.0, 37 °C, HPLC analysis, data not shown

Structure (SMILES): CO/N=C/c1cc(O)c(O)cc1O [Compound 8, (E)-2,4,5-Trihydroxybenzaldehyde O-methyl oxime]
inhibitory activity in the presence of BME ([1]; BME 0.5 mM): abolished; also recorded: abolishes inhibitory activity | inhibitory activity in the presence of ascorbic acid ([1]; ascorbic acid 2.0 mM): does not abolish inhibitory activity | time dependence of inhibitory activity [2]: not time-dependent | quinone species observed by 13C NMR [3]: no observable quinone species | mode of inhibition with respect to pyruvate [4]: noncompetitive

Structure (SMILES): CO/N=C/c1cccc([N+](=O)[O-])c1O [Compound 21, (E)-2-Hydroxy-3-nitrobenzaldehyde O-methyl oxime]
Ki [4]: 47.8 ± 8.4 µM | mode of inhibition with respect to D-GAP [4]: competitive

Structure (SMILES): CO/N=C/c1cc(F)c(F)cc1O [Compound 23, (E)-4,5-Difluoro-2-hydroxybenzaldehyde O-methyl oxime]
inhibitory activity ([4]; up to 100 µM): minimally active

Structure (SMILES): Oc1cc(O)c(/C=N/OCCO/N=C/c2cc(O)c(O)cc2O)cc1O [Compound 5, (1E,1'E)-O,O'-(Ethane-1,2-diyl)bis(1-(2,4,5-trihydroxyphenyl)-2,4,5-trihydroxybenzaldehyde oxime)]
mode of inhibition with respect to D-GAP [4]: competitive | mode of inhibition with respect to pyruvate [4]: uncompetitive

stability under the conditions of the assay [5]: unstable
Structure (SMILES): O=Cc1cc(O)c(O)cc1O [Compound 6, 2,4,5-trihydroxybenzaldehyde]

Structure (SMILES): CC1(C)C(=O)ON(Cc2ccccc2Cl)C1=O [Ketoclomazone]
Ki [6]: 75 µM | mode of inhibition against D-GAP [6]: noncompetitive | mode of inhibition with respect to pyruvate [6]: uncompetitive

Structure (SMILES): O=C([O-])/C=N/OCCO/N=C/c1cc(O)c(O)cc1O.[Na+] [Compound 4, Sodium (1E,7E)-1-(2,4,5-trihydroxyphenyl)-3,6-dioxa-2,7-diazanona-1,7-dien-9-oate]
mode of inhibition with respect to D-GAP [4]: competitive | mode of inhibition with respect to pyruvate [4]: noncompetitive

Structure (SMILES): CONCc1cc(O)c(O)cc1O.Cl [Compound 10, 5-((Methoxyamino)methyl)benzene-1,2,4-triol hydrochloride]
stability under the conditions of the assay [7]: unstable | Ki ([4]; evaluated in the presence of ascorbic acid (2.0 mM)): > 75 µM

Structure (SMILES): CCCCOP(=O)(O)C(C)=O [Butyl Acetyl Phosphonate]
Ki [6]: 5.6 ± 0.8 µM

Structure (SMILES): O/N=C/c1cc(O)c(O)cc1O [Compound 7, (E)-2,4,5-Trihydroxybenzaldehyde oxime]
mode of inhibition with respect to D-GAP [4]: competitive | mode of inhibition with respect to pyruvate [4]: uncompetitive

Structure (SMILES): CO/N=C/c1cc(O)c(O)c(O)c1 [Compound 17, (E)-3,4,5-Trihydroxybenzaldehyde O-methyl oxime]
mode of inhibition with respect to D-GAP [4]: competitive

Structure (SMILES): CO/N=C/c1cc(O)c(O)cc1F [Compound 22, (E)-2-Fluoro-4,5-dihydroxybenzaldehyde O-methyl oxime]
mode of inhibition with respect to D-GAP [4]: competitive | stability under the conditions of the assay [5]: unstable

Structure (SMILES): CN/N=C/c1cc(O)c(O)cc1O [Compound 11, (E)-5-((2-Methylhydrazono)methyl)benzene-1,2,4-triol]
stability under the conditions of the assay [7]: unstable

Structure (SMILES): CO/N=C/c1cc(O)c(O)c(OC)c1 [Compound 18, (E)-3,4-Dihydroxy-5-methoxybenzaldehyde O-methyl oxime]
inhibition at 200 µM [4]: 18%

Structure (SMILES): Oc1cc(O)c(/C=N/OCc2ccccc2)cc1O [Compound 9, (E)-2,4,5-Trihydroxybenzaldehyde O-benzyl oxime]
mode of inhibition with respect to pyruvate [4]: noncompetitive
